Measured values reported in patent EP4722228A1, “NEW COMPOUND TARGETING MUSK AND USE THEREOF” (The University of Tokyo, priority 2023, dated 2024).
Numbered stars: 1 amine (or outer) side, 2 acyl side, 3 side chain; on linkers, the order of the positions; unused ones are H or OH. Bridge positions count the residues as written; N and C are the ends. Square brackets hold non-standard residues; d marks the D form. Peptide text beside a SMILES is read from it. I, II: the chains in the order shown. X1 = O=C(CCN1C(=O)CC([*:1])C1=O)NCCOCCOCCOCCOCCOCCOCCOCCOCCOCCOCCOCCNC(=O)CCN1C(=O)CC([*:2])C1=O

What was measured:
[1] = test system: C2C12 myotubes (Agrin-induced AChR clusters); assay: Agrin-induced AChR clusters in myotubes with tyrosine kinase inhibitors; assay type: cell-based, mouse; conditions: 10 pM recombinant rat agrin, inhibitor added simultaneously, 20 hours; low concentration range of 1 nM
Description: The mouse myoblast-derived cell line C2C12 (CRL-1772) was purchased from the American Type Culture Collection and used. For subculture, Dulbecco's Modified Eagle Medium (DMEM, high glucose, GlutaMAX supplement, pyruvate; GIBCO) supplemented with 20% fetal bovine serum (FBS; GIBCO) was used. For passage, after the culture medium was removed by suction, adherent cells were washed with phosphate buffered saline (PBS(-)), and HBSS (GIBCO) containing no Mg^2+ and Ca^2+ and containing 0.25% trypsin and 1 mM ethylenediaminetetraacetic acid was added, and the mixture was reacted in a CO2 incubator (37°C, 5% CO2) for 5 minutes. The detached cells were collected and then centrifuged at 1000 rpm at 4°C for 5 minutes (Sorvall X4R Pro, Thermo Fisher Scientific Inc.). After the supernatant was removed by suction, the cells were suspended in fresh culture medium, and 100 µL was seeded into a 96-well plate (BioCoat Collagen I 96-well Black/Clear plate, Corning Inc.) and cultured in a CO2 incubator (37°C, 5% CO2) until reaching confluence, typically within 72 hours. Subsequently, the culture medium was removed and the first medium change was performed with DMEM containing 2% horse serum (GIBCO) for induction of myotube cell differentiation.
A differentiation medium supplemented with an appropriate amount of the homodimer of the cyclic peptide MuSK7 (MuSK7 PEG11 dimer) was prepared in advance in a 96-well plate (Nunclon Δ Surface, 167008, Nunc), and used at 100 µL/well at the time of the second medium change in the process of inducing differentiation into myotubes. 20 hours after addition of the homodimer of the cyclic peptide MuSK7, the medium was removed, the cells were washed with PBS(-), and then fixed at room temperature for 15 minutes with PBS(-) containing 4% formaldehyde. After washing several times with 1% BSA-PBS(-), fluorescently labeled α-bungarotoxin (α-Btx, Alexa Fluor 488 conjugate; Invitrogen) was added to 1% BSA-PBS(-) at a final concentration of 100 nM, and after adding this to the wells, the mixture was allowed to stand at room temperature under a light-shielded condition for 30 minutes. After washing the cells several times with 1% BSA-PBS(-), 100 µL of PBS(-) was added to each well, and fluorescence observation was performed using a fluorescence imaging device. For observation of fluorescently labeled AChR clusters, an EVOS M7000 imaging system (Thermo Fisher Scientific Inc.) was used. During fluorescence image observation, a 10× objective lens was used, and tiff images of an area equivalent to 1 mm^2 were obtained. […] The average number of AChR clusters counted from the three tiff images derived from the same well was calculated and drawn on a graph.
MuSK inhibitor candidates were searched in the KinaseNET database (http://www.kinasenet.ca/) published as an open resource by Kinexus Bioinformatics Corporation (Canada), and three tyrosine kinase inhibitors (AST-487, Foretinib, and Sorafenib) were identified. Next, groups were prepared in which 10 pM recombinant rat agrin protein (550-AG, R&D Systems) derived from C2C12 myotubes was added alone, or in which each tyrosine kinase inhibitor (3 nM) was added simultaneously, and detection and observation of Agrin-induced AChR clusters were performed 20 hours after compound addition (five types, Crizotinib, Linifanib, AST-1306, Dovitinib, and BMS-754807, were used as non-MuSK inhibitory tyrosine kinase inhibitors).

[2] = test system: C2C12 myotubes (AChR clusters); assay: Induction of AChR clusters in myotube cells by the MuSK7 homodimer, with or without AST-487; assay type: cell-based, mouse; conditions: in the presence of AST-487
Description: (§1) The mouse myoblast-derived cell line C2C12 (CRL-1772) was purchased from the American Type Culture Collection and used. For subculture, Dulbecco's Modified Eagle Medium (DMEM, high glucose, GlutaMAX supplement, pyruvate; GIBCO) supplemented with 20% fetal bovine serum (FBS; GIBCO) was used. For passage, after the culture medium was removed by suction, adherent cells were washed with phosphate buffered saline (PBS(-)), and HBSS (GIBCO) containing no Mg^2+ and Ca^2+ and containing 0.25% trypsin and 1 mM ethylenediaminetetraacetic acid was added, and the mixture was reacted in a CO2 incubator (37°C, 5% CO2) for 5 minutes. […]
A differentiation medium supplemented with an appropriate amount of the homodimer of the cyclic peptide MuSK7 (MuSK7 PEG11 dimer) was prepared in advance in a 96-well plate (Nunclon Δ Surface, 167008, Nunc), and used at 100 µL/well at the time of the second medium change in the process of inducing differentiation into myotubes. […] After washing the cells several times with 1% BSA-PBS(-), 100 µL of PBS(-) was added to each well, and fluorescence observation was performed using a fluorescence imaging device. […] During fluorescence image observation, a 10× objective lens was used, and tiff images of an area equivalent to 1 mm^2 were obtained. […] The average number of AChR clusters counted from the three tiff images derived from the same well was calculated and drawn on a graph. […]

human MuSK = molecular target: T1, human MuSK (Homo sapiens, UniProt O15146); assay: SPR binding activity test to human MuSK (Biacore); conditions: human MuSK, peptide homodimers
T1 construct: DNA corresponding to the extracellular portion (amino acids 1-493) was amplified by a PCR method; made in house; host or cells: Expi293F cells
T1 sequence (O15146 24-493): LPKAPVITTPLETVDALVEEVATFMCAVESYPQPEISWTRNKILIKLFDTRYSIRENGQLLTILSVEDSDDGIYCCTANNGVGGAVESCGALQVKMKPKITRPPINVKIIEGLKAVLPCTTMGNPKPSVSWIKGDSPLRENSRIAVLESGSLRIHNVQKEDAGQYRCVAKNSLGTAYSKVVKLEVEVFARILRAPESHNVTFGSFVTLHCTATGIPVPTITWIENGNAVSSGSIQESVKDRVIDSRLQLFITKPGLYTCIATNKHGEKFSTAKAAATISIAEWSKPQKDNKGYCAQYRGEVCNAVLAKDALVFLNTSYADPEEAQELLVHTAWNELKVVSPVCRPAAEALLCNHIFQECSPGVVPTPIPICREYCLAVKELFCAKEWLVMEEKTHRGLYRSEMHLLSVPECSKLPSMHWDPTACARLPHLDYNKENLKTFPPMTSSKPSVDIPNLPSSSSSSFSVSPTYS
Outline: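 Extracellular domain (aa 1-493) of human MuSK, expressed as an Fc fusion in Expi293F cells, was captured on Protein G or A chips. Analytes were injected as concentration series in phosphate-buffered saline with 0.05% Tween 20, plus 0.1% DMSO for peptides. ka, kd and KD were obtained from 1:1 binding fits.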

[3] = test system: mouse myoblast-derived cell line C2C12; assay: Induction of AChR clusters in myotube cells and quantitative analysis (fluorescent α-bungarotoxin); assay type: cell-based; conditions: 20 hours after addition
Description: as §1
After washing several times with 1% BSA-PBS(-), fluorescently labeled α-bungarotoxin (α-Btx, Alexa Fluor 488 conjugate; Invitrogen) was added to 1% BSA-PBS(-) at a final concentration of 100 nM, and after adding this to the wells, the mixture was allowed to stand at room temperature under a light-shielded condition for 30 minutes. After washing the cells several times with 1% BSA-PBS(-), 100 µL of PBS(-) was added to each well, and fluorescence observation was performed using a fluorescence imaging device. […] During fluorescence image observation, a 10× objective lens was used, and tiff images of an area equivalent to 1 mm^2 were obtained. […] The average number of AChR clusters counted from the three tiff images derived from the same well was calculated and drawn on a graph.

Row | SMILES | Agrin-induced AChR cluster formation [1] | AChR cluster formation by the homodimer of the cyclic peptide MuSK7 [2] | koff (human MuSK) [s⁻¹] | kon (human MuSK) [M⁻¹ s⁻¹] | Kd (human MuSK; read-out: Kd) [nM] | number of AChR clusters ([3]; compound concentration exceeded 1 µM) | number of AChR clusters ([3]; concentration range from the pM order to 1 µM)
1 | CCN1CCN(Cc2ccc(NC(=O)Nc3ccc(Oc4cc(NC)ncn4)cc3)cc2C(F)(F)F)CC1 [AST-487] | no AChR cluster formation was observed | no AChR clusters were detected |  |  |  |  | 
2 | CC(C)C[C@@H]1NC(=O)[C@H](CO)NC(=O)[C@H](C)NC(=O)[C@H](C(C)C)NC(=O)[C@H](C(C)C)NC(=O)[C@H](CC(N)=O)NC(=O)[C@H]([C@@H](C)O)NC(=O)[C@H](Cc2c[nH]cn2)NC(=O)[C@H](Cc2ccc(O)cc2)NC(=O)[C@H](CO)NC(=O)[C@@H]2CCCN2C(=O)[C@@H](Cc2ccc(O)cc2)NC(=O)CSC[C@@H](C(=O)N[C@@H](CSC2CC(=O)N(CCC(=O)NCCOCCOCCOCCOCCOCCOCCOCCOCCOCCOCCOCCNC(=O)CCN3C(=O)CC(SC[C@H](NC(=O)[C@@H]4CSCC(=O)N[C@H](Cc5ccc(O)cc5)C(=O)N5CCC[C@H]5C(=O)N[C@@H](CO)C(=O)N[C@@H](Cc5ccc(O)cc5)C(=O)N[C@@H](Cc5c[nH]cn5)C(=O)N[C@@H]([C@@H](C)O)C(=O)N[C@@H](CC(N)=O)C(=O)N[C@@H](C(C)C)C(=O)N[C@@H](C(C)C)C(=O)N[C@@H](C)C(=O)N[C@@H](CO)C(=O)N[C@@H](CC(C)C)C(=O)N[C@@H](CCCCN)C(=O)N[C@@H](CCCNC(=N)N)C(=O)N4)C(N)=O)C3=O)C2=O)C(N)=O)NC(=O)[C@H](CCCNC(=N)N)NC(=O)[C@H](CCCCN)NC1=O (stereo partly shown) [MuSK7 PEG11 dimer] (I: {CH2CO}-[dY]PSYHTNVVASLKRCC-NH2 / II: {CH2CO}-[dY]PSYHTNVVASLKRCC-NH2; linker I:16-II:16 via X1; thioether I:N-I:15, II:N-II:15) |  |  | 0.00051 | 390000 | 1.3 | conversely tended to decrease | increased in a dose-dependent manner
